In US20070098735A1, “Methods for the Elimination of Pathogens and Other Particulate Agents” (priority 2005, published 2007):

What was measured:
[1] = system: lipid raft (LR) microdomain of the macrophage plasma membrane; experiment: Binding of exogenous HRP-labeled HSP70 to purified lipid raft fractions; design: species or system murine; details: MCD (30 mM); HRP-labeled HSP70 100 μg/ml; Triton X-100
Description: Purification of lipid rafts. Lipid rafts were purified as DRMs (detergent resistant membrane) using non-ionic detergents following sucrose gradient centrifugation. […] After incubation, cells were washed 3× with PBS and lysed with 2 ml MES (4-morpholinoethanesulfonic acid) buffered saline (MBS; 150 mM NaCl, 20 mM MES, pH 6.5, […] and 5 mM iodoacetamide) containing 0.5% Triton X-100 or 1% for 30 minutes on ice or 7 minutes at 37° C. respectively. The cells were mixed with an equal volume of 90% sucrose in MEB buffer (150 mM NaCl, 20 mM MES [pH 6.5]) and placed at the bottom of the centrifuge tube. […] Fractions of 1 ml each were collected from the bottom of tube and each fraction was analyzed by SDS-PAGE and immunoblotting.
Briefly, RAW264.7 macrophages were treated with exogenous HRP-labeled HSP70 (100 μg/ml) or were left untreated for 60 minutes and washed with PBS three times to remove free HSPs. […] These fractions obtained (light: LR and heavy: non-LR) were then analyzed using immunoblotting to detect HRP activity of HSP70-HRP complexes or tested for the presence of an LR-associated ganglioside GM1 by using HRP-cholera toxin B. Similarly, these fractions were tested for the amount of cholesterol using (Biovision Research Products, CA). […]

[2] = system: Murine macrophage lines (RAW264.7, J774.A1 or RAW264NO-); experiment: Phagocytosis assay in vitro (uptake of Alexa Fluor 488-labeled particles); assay type: cell-based; design: effect of LR-disrupting drugs on HSP70-mediated phagocytosis: dose or concentration left out as unconfirmed
Description: Phagocytosis Assay in vitro. RAW 264.7, RAW264.7 (NO-) and J774A.1 cells were cultured in DMEM or RPMI (RAW NO-) with 10% FCS, harvested, and washed. 3×10^5 cells/well were incubated in serum-free Earle's minimal essential medium (EMEM) in a 24-well plate for 1 hour at 37° C. Alexa Fluor® 488-labeled particles (inert polystyrene microspheres; or yeast, Saccharomyces cerevisiae or Gram-negative bacteria, Escherichia coli, 40 particles/macrophage) were added and co-incubated in a dark environment for 60 minutes in serum free EMEM with or without HSPs, LPS, or control proteins. At the end of 60 minutes incubation, the plate was covered in a dark container on ice. Specific measures were taken to exclude the fluorescence that resulted from particles that were outside of the cell or sticking to the surface of the cell. […] Specifically, trypan blue (0.8 mg/ml) was added for 60 seconds and plates were analyzed immediately using FluorImager SI (Molecular Dynamics/Amersham). Since the emission of Alexa Fluor® 488, about 519 nm at an excitation of about 490 nm, falls within the absorbance range of trypan blue (475-675 nm), the fluorescence of the sample only represents the intracellular fluorescence. External or surface-bound fluorescence is quenched. Using Student's t test, the results were analyzed and P-values were calculated.
HSP-mediated phagocytosis was quantified by measuring the internalized fluorescence measured by FluorImager SI and Relative Mean Fluorescence Intensity (RMFI) was compared between the treatment groups (as indicated). All the treatment groups were compared to medium alone using the Student's t test and significance denoted by P<0.01. The error bar represents one standard deviation. The results shown are a cumulative analysis of 3 experiments, 3 wells/group.

macrophages = experiment: Trypan blue exclusion viability of treated macrophages; details: MCD-treated cells
[3] = system: macrophage phagocytosis in wounded mice; experiment: Inhibition of phagocytosis in vivo by gadolinium chloride, wound closure; details: GdCl3 10 mg/kg IV day -1 and day 0; HSP70 30 μg/dose SC day 0
Description: Inhibition of Phagocytosis In vivo. Intravenous injection of gadolinium chloride inhibits phagocytosis of macrophages without affecting their viability or affecting other cell types. Mice were treated (on day minus-1 and day 0) with GdCl3 (10 mg/kg body weight in 200 μl of distilled water) administered intravenously via the retro-orbital venous plexus. Subsequently the mice were wounded as previously described (Day 0) and treated with PBS and HSP70 (30 μg/dose) given subcutaneously on day 0.
Treatment groups shown are (i) HSP70 alone; (ii) HSP70+GdCl3; (iii) PBS alone; and (iv) PBS+GdCl3. *P values were obtained using the Student's t-test by comparing the percent inhibition in wound closure of gadolinium chloride plus treatment to percent wound closure of the treatment alone.

Row | Compound | effect on binding of exogenous HSP70 to lipid rafts [1] | dose dependence of inhibitory effect on macrophage response to HSP70 ([2]; MCD 0-30 mM, HSP70 100 μg/ml) | effect of LR-disrupting drugs on HSP70-mediated phagocytosis ([2]; nystatin or MCD, labeled yeast 40 particles/macrophage) | viability (trypan blue exclusion) (macrophages) [%] | inhibition of the HSP70-mediated effects on wound healing [3]
1 | methyl-β-cyclodextrin [MCD] | significant reduction in the binding of exogenously administered HSP70 | titratable | HSP70-mediated phagocytosis was inhibited | 95 | –
2 | [Cl][Gd]([Cl])[Cl] [GdCl3, gadolinium chloride] | – | – | – | – | up to 67%
